Counter-ions that a name gives are not always drawn.
Assays:
Assay in all cases: MIC, NCCLS broth microdilution
Type in all cases: cell-based
[1] = system: Stenotrophomonas malthophilia 1AC736; conditions: for MIC of antibiotic at fixed inhibitor concentration (4 mg/L): Stenotrophomonas malthophilia 1AC736, MIC of antibiotic compound 1 with the labelled bridged monobactam of formula II and clavulanate, 4 mg/L each
Acinetobacter sp. J2 = conditions: for MIC of antibiotic at fixed inhibitor concentration (4 mg/L): Acinetobacter sp. J2, MIC of antibiotic compound 1 with the labelled bridged monobactam of formula II and clavulanate, 4 mg/L each
Serratia marcescens S6 = conditions: for MIC of antibiotic at fixed inhibitor concentration (4 mg/L): MIC of antibiotic compound 1 with the labelled bridged monobactam of formula II and clavulanate, 4 mg/L each
Enterobacter cloacae P99 = conditions: for MIC of antibiotic at fixed inhibitor concentration (4 mg/L): MIC of antibiotic compound 1 with the labelled bridged monobactam of formula II and clavulanate, 4 mg/L each
[2] = system: Klebsiella pneumoniae CF104; conditions: for MIC of antibiotic at fixed inhibitor concentration (4 mg/L): MIC of antibiotic compound 1 with the labelled bridged monobactam of formula II and clavulanate, 4 mg/L each
[3] = system: Pseudomonas aeruginosa MK1184; conditions: for MIC of antibiotic at fixed inhibitor concentration (4 mg/L): MIC of antibiotic compound 1 with the labelled bridged monobactam of formula II and clavulanate, 4 mg/L each
Experimental: Antimicrobial activity of the compounds and of their combinations was determined against a selection of organisms according to the standard procedures described by the National Committee for Clinical Laboratory Standards (National Committee for Clinical Laboratory. Standards (2000). Methods for Dilution Antimicrobial Susceptibility Tests for Bacteria That Grow Aerobically-Fifth Edition: Approved Standard M7-A5. NCCLS, Wayne, Pa., USA).
In all cases the final concentration of DMSO incubated with the bacteria is less than or equal to 1%. […] Plates were incubated overnight at an appropriate temperature (30° C. or 37° C.) and optical densities assessed by eye. The MIC value is defined as the lowest compound concentration completely inhibiting visible growth of the test organism. When combinations between compounds of formula I with compounds of formula II and are evaluated the compounds of formula I are tested in dilution series as described above while the compounds of formula II and III-XIII were present in all wells at a constant concentration of 4 μg/mL each.

[4] = system: Pseudomonas aeruginosa 1973E; conditions: for MIC of antibiotic at fixed inhibitor concentration (4 mg/L): MIC of antibiotic compound 1 with the labelled bridged monobactam of formula II and clavulanate, 4 mg/L each
Procedure, shortened: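 Broth microdilution following NCCLS M7-A5, with final DMSO ≤1%. Plates were incubated overnight at 30° C. or 37° C. and growth was read by eye; MIC is the lowest concentration giving complete inhibition of visible growth. In combination tests the formula I compound was serially diluted while partner compounds were held at 4 μg/mL each.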

[5] = with clavulanate (clavulanic acid)

`Nc1nc(CC(=O)N2CC[C@@H]3[C@H]2C(=O)N3S(=O)(=O)O)cs1` [Compound 401] was tested, and the “MIC of antibiotic at fixed inhibitor concentration (4 mg/L)” value [1] was 0.125 mg/L, the “MIC of antibiotic at fixed inhibitor concentration (4 mg/L)” value (Acinetobacter sp. J2) was 4 mg/L and the “MIC of antibiotic at fixed inhibitor concentration (4 mg/L)” value (Serratia marcescens S6) was 0.125 mg/L. For the same compound, the “MIC of antibiotic at fixed inhibitor concentration (4 mg/L)” value (Enterobacter cloacae P99) was 16 mg/L, the “MIC of antibiotic at fixed inhibitor concentration (4 mg/L)” value [2] was 0.5 mg/L and the “MIC of antibiotic at fixed inhibitor concentration (4 mg/L)” value [3] was over 32 mg/L. For the same compound, the “MIC of antibiotic at fixed inhibitor concentration (4 mg/L)” value [4] was 8 mg/L.

`O=C(Nc1ccc(NC(=O)N2CC[C@@H]3[C@H]2C(=O)N3S(=O)(=O)O)cc1)N1CCNCC1` [Compound 326, (1S,5R)-7-oxo-2-{N-[4-(piperazinylcarbonylamino)phenyl]carbamoyl}-2,6-diazabicyclo[3.2.0]heptane-6-sulfonic acid] was tested, and the “MIC of antibiotic at fixed inhibitor concentration (4 mg/L)” value [1] was 0.125 mg/L, the “MIC of antibiotic at fixed inhibitor concentration (4 mg/L)” value (Acinetobacter sp. J2) was 4 mg/L and the “MIC of antibiotic at fixed inhibitor concentration (4 mg/L)” value (Serratia marcescens S6) was 0.125 mg/L. For the same compound, the “MIC of antibiotic at fixed inhibitor concentration (4 mg/L)” value (Enterobacter cloacae P99) was 8 mg/L, the “MIC of antibiotic at fixed inhibitor concentration (4 mg/L)” value [2] was over 32 mg/L and the “MIC of antibiotic at fixed inhibitor concentration (4 mg/L)” value [3] was 32 mg/L. For the same compound, the “MIC of antibiotic at fixed inhibitor concentration (4 mg/L)” value [4] was 4 mg/L.

With `COC(=O)c1ccc[n+](CC(=O)N2CC[C@@H]3[C@H]2C(=O)N3S(=O)(=O)[O-])c1` [Compound 116, (1S,5R)-2-{2-[3-(methoxycarbonyl)pyridinium]acetyl}-7-oxo-2,6-diazabicyclo[3.2.0]heptane-6-sulfonate, inner salt] the “MIC of antibiotic at fixed inhibitor concentration (4 mg/L)” value [1] was 0.125 mg/L, the “MIC of antibiotic at fixed inhibitor concentration (4 mg/L)” value (Acinetobacter sp. J2) was 16 mg/L and the “MIC of antibiotic at fixed inhibitor concentration (4 mg/L)” value (Serratia marcescens S6) was 0.25 mg/L. The “MIC of antibiotic at fixed inhibitor concentration (4 mg/L)” value (Enterobacter cloacae P99) was 32 mg/L, the “MIC of antibiotic at fixed inhibitor concentration (4 mg/L)” value [2] was 0.5 mg/L and the “MIC of antibiotic at fixed inhibitor concentration (4 mg/L)” value [3] was 8 mg/L. The “MIC of antibiotic at fixed inhibitor concentration (4 mg/L)” value [4] was 16 mg/L.

`CC1C(NC(=O)C(=NOCc2cc(=O)c(O)cn2O)c2cccc(N)n2)C(=O)N1S(=O)(=O)O` (centres unmarked) [Compound 20] was tested, and the MIC of antibiotic ([1]; Stenotrophomonas maltophilia 1AC736, antibiotic alone, no inhibitor) was 4 mg/L, the “MIC of antibiotic at fixed inhibitor concentration of 4 mg/L” value ([1]; Stenotrophomonas maltophilia 1AC736, with 102 and clavulanate) was 0.25 mg/L and the “MIC of antibiotic at fixed inhibitor concentration of 4 mg/L” value ([1]; Stenotrophomonas maltophilia 1AC736, with 206 and clavulanate) was 0.5 mg/L. For the same compound, the “MIC of antibiotic at fixed inhibitor concentration of 4 mg/L” value ([1]; Stenotrophomonas maltophilia 1AC736, with 501) was 0.25 mg/L, the “MIC of antibiotic at fixed inhibitor concentration of 4 mg/L” value ([1]; Stenotrophomonas maltophilia 1AC736, with clavulanate (clavulanic acid)) was 0.25 mg/L and the MIC of antibiotic (Acinetobacter sp. J2; Acinetobacter baumannii J2, antibiotic alone, no inhibitor) was over 32 mg/L. The “MIC of antibiotic at fixed inhibitor concentration of 4 mg/L” value (Acinetobacter sp. J2; Acinetobacter baumannii J2, with 102 and clavulanate) was over 32 mg/L, the “MIC of antibiotic at fixed inhibitor concentration of 4 mg/L” value (Acinetobacter sp. J2; Acinetobacter baumannii J2, with 206 and clavulanate) was over 32 mg/L and the “MIC of antibiotic at fixed inhibitor concentration of 4 mg/L” value (Acinetobacter sp. J2; Acinetobacter baumannii J2, with 501) was under 0.06 mg/L. The “MIC of antibiotic at fixed inhibitor concentration of 4 mg/L” value (Acinetobacter sp. J2; Acinetobacter baumannii J2, with clavulanate (clavulanic acid)) was over 32 mg/L, the MIC of antibiotic (Serratia marcescens S6; antibiotic alone, no inhibitor) was 4 mg/L and the “MIC of antibiotic at fixed inhibitor concentration of 4 mg/L” value (Serratia marcescens S6; with 102 and clavulanate) was 0.5 mg/L. The “MIC of antibiotic at fixed inhibitor concentration of 4 mg/L” value (Serratia marcescens S6; with 206 and clavulanate) was 0.5 mg/L, the “MIC of antibiotic at fixed inhibitor concentration of 4 mg/L” value (Serratia marcescens S6; with 501) was 2 mg/L and the “MIC of antibiotic at fixed inhibitor concentration of 4 mg/L” value (Serratia marcescens S6; [5]) was 2 mg/L. For the same compound, the MIC of antibiotic (Enterobacter cloacae P99; antibiotic alone, no inhibitor) was over 32 mg/L, the “MIC of antibiotic at fixed inhibitor concentration of 4 mg/L” value (Enterobacter cloacae P99; with 102 and clavulanate) was 16 mg/L and the “MIC of antibiotic at fixed inhibitor concentration of 4 mg/L” value (Enterobacter cloacae P99; with 206 and clavulanate) was 16 mg/L. The “MIC of antibiotic at fixed inhibitor concentration of 4 mg/L” value (Enterobacter cloacae P99; with 501) was over 32 mg/L, the “MIC of antibiotic at fixed inhibitor concentration of 4 mg/L” value (Enterobacter cloacae P99; [5]) was over 32 mg/L and the MIC of antibiotic ([2]; antibiotic alone, no inhibitor) was over 32 mg/L. For the same compound, the “MIC of antibiotic at fixed inhibitor concentration of 4 mg/L” value ([2]; with 102 and clavulanate) was 2 mg/L, the “MIC of antibiotic at fixed inhibitor concentration of 4 mg/L” value ([2]; with 206 and clavulanate) was 4 mg/L and the “MIC of antibiotic at fixed inhibitor concentration of 4 mg/L” value ([2]; with 501) was 16 mg/L. The “MIC of antibiotic at fixed inhibitor concentration of 4 mg/L” value [2, 5] was 32 mg/L, the MIC of antibiotic ([3]; antibiotic alone, no inhibitor) was over 32 mg/L and the “MIC of antibiotic at fixed inhibitor concentration of 4 mg/L” value ([3]; with 102 and clavulanate) was 8 mg/L. For the same compound, the “MIC of antibiotic at fixed inhibitor concentration of 4 mg/L” value ([3]; with 206 and clavulanate) was over 32 mg/L, the “MIC of antibiotic at fixed inhibitor concentration of 4 mg/L” value ([3]; with 501) was over 32 mg/L and the “MIC of antibiotic at fixed inhibitor concentration of 4 mg/L” value [3, 5] was over 32 mg/L. For the same compound, the MIC of antibiotic ([4]; antibiotic alone, no inhibitor) was 16 mg/L, the “MIC of antibiotic at fixed inhibitor concentration of 4 mg/L” value ([4]; with 102 and clavulanate) was 32 mg/L and the “MIC of antibiotic at fixed inhibitor concentration of 4 mg/L” value ([4]; with 206 and clavulanate) was 16 mg/L. The “MIC of antibiotic at fixed inhibitor concentration of 4 mg/L” value ([4]; with 501) was 16 mg/L and the “MIC of antibiotic at fixed inhibitor concentration of 4 mg/L” value [4, 5] was 16 mg/L.

From US20160122320A1, “USEFUL COMBINATIONS OF MONOBACTAM ANTIBIOTICS WITH BETA-LACTAMASE INHIBITORS” (Basilea Pharmaceutica AG, priority 2005, published 2016)
